# Results reported in patent publication US7737166B2, “Antifungal bicyclic hetero ring compounds” (Daiichi Sankyo Company, Limited, priority 2005, dated 2010).
# Legend:
# C. glabrata ATCC48435 = test: Antifungal activity (GI80), growth inhibition in YPD20 medium by absorbance at 600 nm; assay type: cell-based; conditions: Nakaseomyces glabratus, ATCC48435, minimum concentration for at least 80% cell growth inhibition, 37° C., absorbance 600 nm, read-out: GI80 (μg/ml) C. glabrata ATCC48435
# Procedure: (§1) The antifungal activity of the compounds of the invention was determined according to the method mentioned below.
# (§2) An YPD20 medium (1% yeast extract, 2% peptone, 20% glucose) was used,
# (§3) (2) Preparation of Cell Liquid for Inoculation:
# (§4) Cells incubated overnight with Sabouraud dextrose agar at 30° C. were suspended in 0.1% Tween 80-added saline, and then added to a concentrated medium (1.33% yeast extract, 2.67% peptone, 13.33% glucose) so that the final cell concentration could be 5×10^3 cells/ml, thereby preparing a cell liquid for inoculation.
# (§5) (3) Production of Chemical Dilution Plate:
# (§6) A metered sample was dissolved in dimethyl sulfoxide, and a 2-fold dilution series was prepared using dimethyl sulfoxide. A chemical dilution of 2 μl each was added to a flat-bottom 96-well plate with 40% glucose (48 μl) put in each well, thereby producing a chemical dilution plate.
# (§7) (4) Inoculation and Cultivation of Cell Liquid:
# (§8) The cell liquid (150 μl) prepared in (2) was added to the chemical dilution plate produced in (3), followed by aerobic static cultivation at 37° C.
# (§9) (5) Determination of Antifungal Activity (GI80 Value):
# (§10) After cultivation for […], the plate was stirred, and its absorbance (600 nm) was measured. Based on the absorbance as the index, the minimum chemical concentration for at least 80% cell growth inhibition relative to the cell growth in the chemical-free well was computed as a GI80 value.
# C. albicans ATCC90028 = test: as above; assay type: cell-based; conditions: Candida albicans, ATCC90028, minimum concentration for at least 80% cell growth inhibition, 37° C., absorbance 600 nm, read-out: GI80 (μg/ml) C. albicans ATCC90028
# Procedure: as §1, §2, §3, §4, §5, §6, §7, §8, §9, §10
# C. albicans ATCC MYA-573 = test: as above; assay type: cell-based; conditions: Candida albicans, minimum concentration for at least 80% cell growth inhibition, 37° C., absorbance 600 nm, read-out: GI80 (μg/ml) C. albicans ATCC MYA-573
# Procedure: as §1, §2, §3, §4, §5, §6, §7, §8, §9, §10
melting point,SMILES,IC80 (C. glabrata ATCC48435),IC80 (C. albicans ATCC90028),IC80 (C. albicans ATCC MYA-573)
198 to 201 °C (dec.),"Cc1c(-c2ccccc2)c(N2CC[C@H](N(C)C)C2)c2oc(C(C)(C)C)nc2c1C#N.Cl [Example 1, 2-tert-Butyl-7-[(3S)-3-(dimethylamino)pyrrolidin-1-yl]-5-methyl-6-phenyl-1,3-benzoxazole-4-carbonitrile hydrochloride]",0.032 µg/mL,0.063 µg/mL,0.063 µg/mL
237 to 240 °C (dec.),"CN[C@H]1CCN(c2c(-c3ccccc3)c(C)c(C#N)c3nc(C(C)(C)C)oc23)C1.Cl [Example 2, 2-tert-Butyl-5-methyl-7-[(3S)-3-(methylamino)pyrrolidin-1-yl]-6-phenyl-1,3-benzoxazole-4-carbonitrile hydrochloride]",0.125 µg/mL,0.5 µg/mL,0.25 µg/mL
175 to 178 °C,"Cc1c(-c2ccccc2)c(N2CCC(N(C)C)C2)c2oc(C(C)(C)CO)nc2c1C#N (stereo not shown) [Example 14, 7-[3-(Dimethylamino)pyrrolidin-1-yl]-2-(2-hydroxy-1,1-dimethylethyl)-5-methyl-6-phenyl-1,3-benzoxazole-4-carbonitrile]",0.125 µg/mL,0.25 µg/mL,0.25 µg/mL
127 to 128 °C,"Cc1c(-c2cccn2C)c(N2CC[C@H](N(C)C)C2)c2oc(C3CC3)nc2c1C#N [Example 22, 2-Cyclopropyl-7-[(3S)-3-(dimethylamino)pyrrolidin-1-yl]-5-methyl-6-(1-methyl-1H-pyrrol-2-yl)-1,3-benzoxazole-4-carbonitrile]",0.5 µg/mL,0.5 µg/mL,1 µg/mL
167 to 168 °C,"Cc1nc(-c2c(C)c(C#N)c3nc(C4CC4)oc3c2N2CC[C@H](N(C)C)C2)cs1 [Example 23, 2-Cyclopropyl-7-[(3S)-3-(dimethylamino)pyrrolidin-1-yl]-5-methyl-6-(2-methyl-1,3-thiazol-4-yl)-1,3-benzoxazole-4-carbonitrile]",0.5 µg/mL,1 µg/mL,1 µg/mL
227 to 233 °C,"Cc1c(-c2ccccc2)c(N2CC[C@H](N(C)C)C2)c2oc(-c3ccccn3)nc2c1C#N [Example 35, 7-[(3S)-3-(Dimethylamino)pyrrolidin-1-yl]-5-methyl-6-phenyl-2-(pyridin-2-yl)-1,3-benzoxazole-4-carbonitrile]",0.032 µg/mL,0.25 µg/mL,0.25 µg/mL
214 to 216 °C,"CNC(=O)c1nc2c(C#N)c(C)c(-c3ccccc3)c(N3CC[C@H](N(C)C)C3)c2o1 [Example 39, 4-Cyano-7-[(3S)-3-(dimethylamino)pyrrolidin-1-yl]-N,5-dimethyl-6-phenyl-1,3-benzoxazole-2-carboxamide]",,,
139 to 142 °C,"Cc1c(-c2ccccc2)c(N2CC[C@H](N(C)C)C2)c2oc(C(=O)N(C)C)nc2c1C#N [Example 40, 4-Cyano-7-[(3S)-3-(dimethylamino)pyrrolidin-1-yl]-N,N,5-trimethyl-6-phenyl-1,3-benzoxazole-2-carboxamide]",0.016 µg/mL,0.063 µg/mL,0.063 µg/mL
148 to 151 °C,"CN[C@H]1CCN(c2c(-c3ccccc3)c(C)c(C#N)c3nc(C(=O)N(C)C)oc23)C1 [Example 40-1, 4-Cyano-N,N,5-trimethyl-7-[(3S)-3-(methylamino)pyrrolidin-1-yl]-6-phenyl-1,3-benzoxazole-2-carboxamide]",0.032 µg/mL,0.25 µg/mL,0.25 µg/mL
67 to 70 °C,"Cc1c(-c2ccccc2)c(N2CC[C@@H](N(C)C)C2)c2oc(C(=O)N(C)C)nc2c1C#N [Example 40-2, 4-Cyano-N,N,5-trimethyl-7-[(3R)-3-(dimethylamino)pyrrolidin-1-yl]-6-phenyl-1,3-benzoxazole-2-carboxamide]",,,
145 to 148 °C,"CN[C@@H]1CCN(c2c(-c3ccccc3)c(C)c(C#N)c3nc(C(=O)N(C)C)oc23)C1 [Example 40-3, 4-Cyano-N,N,5-trimethyl-7-[(3R)-3-(methylamino)pyrrolidin-1-yl]-6-phenyl-1,3-benzoxazole-2-carboxamide]",,,
170 to 173 °C,"Cc1cc2c(c(N3CC[C@H](N(C)C)C3)c1-c1ccccc1)OC(C#N)(C(=O)N1CCCCC1)N2 (stereo partly drawn) [Example 43, 7-[(3S)-3-(dimethylamino)pyrrolidin-1-yl]-5-methyl-6-phenyl-2-(piperidin-1-ylcarbonyl)-1,3-benzoxazole-2-carbonitrile]",,,
138 to 141 °C,"Cc1c(-c2ccccc2)c(N2CC[C@H](N(C)C)C2)c2oc(C(=O)N(C)CCc3ccccc3)nc2c1C#N [Example 46, 4-Cyano-7-[(3S)-3-(dimethylamino)pyrrolidin-1-yl]-N,5-dimethyl-6-phenyl-N-(2-phenylethyl)-1,3-benzoxazole-2-carboxamide]",,,
153 to 156 °C,"Cc1nc(-c2c(C)c(C#N)c3nc(C(=O)N(C)C)oc3c2N2CC[C@H](N(C)C)C2)cs1 [Example 51, 4-Cyano-7-[(3S)-3-(dimethylamino)pyrrolidin-1-yl]-N,N,5-trimethyl-6-(2-methyl-1,3-thiazol-4-yl)-1,3-benzoxazole-2-carboxamide]",0.25 µg/mL,1 µg/mL,1 µg/mL
219 to 221 °C,"Cc1c(-c2ccccc2)c(N2CC[C@H](N(C)C)C2)c2oc(N3CC(O)C3)nc2c1C#N [Example 65, 7-[(3S)-3-(Dimethylamino)pyrrolidin-1-yl]-2-(3-hydroxyazetidin-1-yl)-5-methyl-6-phenyl-1,3-benzoxazole-4-carbonitrile]",,,
214 to 222 °C,"Cc1c(-c2ccccc2)c(N2CC[C@H](N(C)C)C2)c2oc(-c3cnn(C)c3)nc2c1C#N [Example 74, 7-[(3S)-3-(Dimethylamino)pyrrolidin-1-yl]-5-methyl-2-(1-methyl-1H-pyrazol-4-yl)-6-phenyl-1,3-benzoxazole-4-carbonitrile]",,,
167 to 169 °C,"Cc1c(-c2ccccc2)c(N2CC[C@H](N(C)C)C2)c2oc(N3CC(C)(O)C3)nc2c1C#N [Example 99, 7-[(3S)-3-(Dimethylamino)-1-pyrrolidinyl]-2-(3-hydroxy-3-methylazetidin-1-yl)-5-methyl-6-phenyl-1,3-benzoxazole-4-carbonitrile]",,,
259 to 263 °C,"Cc1c(-c2ccccc2)c(N2CC[C@H](N(C)C)C2)c2oc(-c3ccccc3N)nc2c1C#N [Example 109, 2-(2-Aminophenyl)7-[(3S)-3-(dimethylamino)pyrrolidin-1-yl]-5-methyl-6-phenyl-1,3-benzoxazole-4-carbonitrile]",,,
159 to 162 °C,"Cc1c(-c2ccccc2)c(N2CC[C@H](N(C)C)C2)c2oc(-c3ccccc3O)nc2c1C#N [Example 110, 7-[(3S)-3-(Dimethylamino)pyrrolidin-1-yl]-2-(2-hydroxyphenyl)-5-methyl-6-phenyl-1,3-benzoxazole-4-carbonitrile]",,,
215 to 217 °C,"Cc1c(-c2ccccc2)c(N2CC[C@H](N(C)C)C2)c2oc(N3CCOCC3)nc2c1C#N [Example 130, 7-[(3S)-3-(Dimethylamino)pyrrolidin-1-yl]-5-methyl-2-morpholin-4-yl-6-phenyl-1,3-benzoxazole-4-carbonitrile]",,,
209 to 211 °C,"CCN[C@H]1CCN(c2c(-c3ccccc3)c(C)c(C#N)c3nc(C4CC4)oc23)C1 [Example 138, 2-Cyclopropyl-7-[(3S)-3-(ethylamino)pyrrolidin-1-yl]-5-methyl-6-phenyl-1,3-benzoxazole-4-carbonitrile]",,,
104 to 107 °C,"Cc1c(-c2cccc(CF)c2)c(N2CC[C@H](N(C)C)C2)c2oc(C3CC3)nc2c1C#N [Example 144-10, 2-Cyclopropyl-7-[(3S)-3-(dimethylamino)pyrrolidin-1-yl]-6-[3-(fluoromethyl)phenyl]-5-methyl-1,3-benzoxazole-4-carbonitrile]",,,
172 to 174 °C,"Cc1c(-c2ccccc2)c(C2=CCNC2)c2oc(C3CC3)nc2c1C#N [Example 153, 2-Cyclopropyl-7-(2,5-dihydro-1H-pyrrol-3-yl)-5-methyl-6-phenyl-1,3-benzoxazole-4-carbonitrile]",,,
178 to 180 °C,"CN[C@@]1(C)CCN(c2c(-c3cccc(F)c3)c(C)c(C#N)c3nc(C(=O)N(C)C)oc23)C1 [Example 157, 4-Cyano-6-(3-fluorophenyl)-N,N,5-trimethyl-7-[(3S)-3-methyl-3-(methylamino)pyrrolidin-1-yl]-1,3-benzoxazole-2-carboxamide]",,,
202 to 204 °C,"Cc1c(-c2ccccc2)c(N2CC[C@](C)(N)C2)c2oc(C(=O)N(C)C)nc2c1C#N [Example 160, 7-[(3S)-3-Amino-3-methylpyrrolidin-1-yl]-4-cyano-N,N,5-trimethyl-6-phenyl-1,3-benzoxazole-2-carboxamide]",,,
